Earlier results on 1 compound are cited in patent US20210060105A1, “GINKGO BILOBA EXTRACT COMPOSITE FORMULATION AND USE OF THE SAME” (priority 2019, published 2021).

For data set [1] the following is noted: increased from the original 49.7±3.6 mg/dL.

Regarding `CC1=C(/C=C/C(C)=C/C=C/C(C)=C/C=C/C=C(C)/C=C/C=C(C)/C=C/C2=C(C)C(=O)[C@@H](O)CC2(C)C)C(C)(C)C[C@H](O)C1=O` [Astaxanthin, astaxanthin], the “antioxidant ability relative to vitamin E” value (compared with vitamin E) is reported as 550 times. In addition, under “compared with β-carotene”, the “antioxidant ability relative to β-carotene” value was 10 times. Moreover, the “HDL in vivo after astaxanthin” value in data set [1] is 66.5 ± 5.1 mg/dL.
